Results as given in patent EP0309421A2, “O-alkanoyl derivatives of 3-amino-2-hydroxypropanesulfonic acid having anticonvulsivant activity and pharmaceutical compositions containing same for the therapeutical treatment of epilepsy” (SIGMA TAU Industrie Farmaceutiche Riunite S.p.A., priority 1987, dated 1989).
Marks after values point to notes of the source that are not given here.

Experiments:
[1] = tested on: cardiazol-induced convulsions; experiment: Anticonvulsivant test, cardiazol-induced convulsions; type: in vivo, male albino swiss (Charles River) mice
Description: (§1) Anticonvulsivant tests were carried out using cardiazol, strychnine and bicuculline at doses of 100 mg/10 ml/kg i.p., 0.73 mg/10 ml/kg s.c. and 2.38 mg/10 ml/kg s.c., respectively, chosen in such a way as to provoke death in 50% of the control animals.
(§2) The tests were carried out in male albino swiss (Charles River) mice weighing 22-24 g. The compound under examination, dissolved in water, was i.p. administered 30 minutes before the convulsivant agent administration.
(§3) As reference substance, 3-APS (200-400-800 mg/10 ml/kg i.p.) was used.

[2] = tested on: strychnine-induced convulsions; experiment: Anticonvulsivant test, strychnine-induced convulsions; type: in vivo, male albino swiss (Charles River) mice
Description: as §1, §2, §3

[3] = tested on: bicuculline-induced convulsions; experiment: Anticonvulsivant test, bicuculline-induced convulsions; type: in vivo, male albino swiss (Charles River) mice
Description: as §1, §2, §3

[4] = Stability of the solid product versus pH (deacylation); type: physicochemical; conditions: above it deacylation of the compound takes place
Description: After it had been cooled to room temperature the mixtured was filtered and the filtrate added dropwise to an Erlenmeyer flask containing about 700 milliliters of ethyl ether. A white precipitate formed which was again dissolved in methanol, filtered and re-precipitated with ether. Upon drying 7.3 g of a white, hygroscopic solid product, stable at pH <6.3 were obtained; above this […] deacylation of the compound takes place. • Elementary analysis: [formula] • NMR corresponding

[5] = tested on: male and female Sprague Dawley rats; experiment: Toxicity test, oral administration for 15 consecutive days; type: in vivo; conditions: 150-450-1350 mg/10 ml/kg for 15 consecutive days
Description: The toxicity tests were carried out on male and female Sprague Dawley rats which were orally administered ST549 at the doses of 150-450-1350 mg/10 ml/kg for 15 consecutive days; the control animals were administered the same volume of vehicle as the test animals.

[6] = tested on: male albino swiss mice; experiment: Tolerability test, intravenous; type: in vivo; conditions: 1.4 g/kg intravenously, in sterile saline at neutral pH
Description: The tolerability test was carried out on male albino swiss mice weighing 22-24 g.

[7] = tested on: FeCl3-induced epilepsy; experiment: Antiepileptic activity test (FeCl3-induced epilepsy model); type: in vivo, Male albino Wistar rats; conditions: 500, 250 and 125 mg/kg i.v. ninety minutes following FeCl3 injection; Mann-Whitney's "U" test, P<0.05
Description: Male albino Wistar rats weighing 250-300 g were used. The animals, anaesthetized with Nembutal Na (30 mg/kg e.p.), were stereotactically injected in their left ventral hippocampus one microliter of 0.55 M FeC13 solution (AP =-3.2; L=5.0; H=5.5 Pellegrino and Cushman, 1971). Ten minutes following injection, recording electrodes were implanted: in both ventral hippocampi, two millimeters below the FeC13 injection site (bipolars), bilaterally on the frontoparietal cortex (monopolars). […] The epilepsy degree was assessed by calculating for each animal the number and duration in seconds of the seizures at 5-minute intervals during the whole recording span both in the hippocampus where the injection had been performed and in the contralateral cortex. Moreover, an "index of epileptization" was calculated as the mean product of seizure number times the duration of the seizures in each time interval. […]
The results thus obtained show the antiepileptic activity of the compound assessed by examining the whole phenomenon as it evolves in time via the measure (carried out with the trapezoidal rule) of the area under the curve wherein the average number of seizures and their duration is plotted versus time.

[8] = tested on: auricular electroshock; experiment: Auricular electroshock (maximal electroshock); type: in vivo, Male albino Swiss mice; conditions: 14 animals, control 6/14
Description: Male albino Swiss mice weighing 22-24 g were used in this test. The electroshock conditions were the following: • shock duration: 3 seconds; frequence: 100; pulse amplitude: 0.6 milliseconds, current intensity: 40 milliamperes. • 400 and 800 mg/10 ml/kg of the compound under examination were administered via the intraperitoneal route 30 minutes before the electroshock.
The tests results which illustrate the number of animals preserved from death provoked by maximal electroshock are shown in the following Table 3.

[9] = Cardiazol, 3-APS 400 mg/kg i.p.
[10] = Cardiazol, 3-APS 800 mg/kg i.p.
[11] = doses of 200,400 and 800 mg/10 ml/kg i.p.
[12] = Strychnine, 3-APS 400 mg/kg i.p.
[13] = Strychnine, 3-APS 800 mg/kg i.p.
[14] = Bicuculline, 3-APS 800 mg/kg i.p.
[15] = Cardiazol, ST 549 i.p., equimolar to 400 mg/kg 3APS
[16] = lower dose (equimolar to 200 mg/10 ml/kg of 3-APS)
[17] = Strychnine, ST 549 i.p., equimolar to 400 mg/kg 3APS
[18] = Bicuculline, ST 549 i.p., equimolar to 400 mg/kg 3APS

NCCCS(=O)(=O)O [3-APS, 3-aminopropanesulfonic acid]
% Conv. ([1]; Cardiazol 100 mg/10 ml/kg i.p., 3-APS 200 mg/kg i.p. 30 min before, 10 animals): 100%
% Death rate ([1]; Cardiazol, 3-APS 200 mg/kg i.p.): 50%
% Conv. [1, 9]: 100%
% Death rate [1, 9]: 90%
% Conv. [1, 10]: 100%
% Death rate [1, 10]: 60%
preservation from cardiazole-induced death [1, 11]: did not preserve animals
% Conv. ([2]; Strychnine 0.73 mg/10 ml/kg s.c., 3-APS 200 mg/kg i.p. 30 min before, 10 animals): 100%
% Death rate ([2]; Strychnine, 3-APS 200 mg/kg i.p.): 90%
% Conv. [2, 12]: 100%
% Death rate [2, 12]: 100%
% Conv. [2, 13]: 100%
% Death rate [2, 13]: 90%
preservation from strychnine-induced death [2, 11]: did not preserve animals
latency time of bicuculline-induced death ([3]; 400 mg/10 ml/kg i.p.): significantly increased
latency time of the bicuculline-induced first convulsion ([3]; 800 mg/kg i.p.): significantly increased
% Conv. ([3]; Bicuculline 2.38 mg/10 ml/kg s.c., 3-APS 200 mg/kg i.p. 30 min before, 10 animals): 100%
% Death rate ([3]; Bicuculline, 3-APS 200 mg/kg i.p.): 100%
% Death rate ([3]; Bicuculline, 3-APS 400 mg/kg i.p.): 75%
% Conv. ([3]; Bicuculline, 3-APS 400 mg/kg i.p., 8 animals per group): 100* %
% Conv. [3, 14]: 70%
% Death rate [3, 14]: 40%
preservation from bicuculline-induced death [3, 11]: did not preserve animals

CCCC(=O)OC(CN)CS(=O)(=O)O.Cl (stereo not shown) [ST 477, 3-amino-2-butanoyloxypropanesulfonic acid hydrochloride]
stable at pH [4]: < 6.3

CC(=O)OC(CN)CS(=O)(=O)O (stereo not shown) [ST 549, 3-amino-2-acetyloxy propanesulfonic acid]
% Conv. ([1]; Cardiazol, ST 549 i.p., dose equimolar to 200 mg/kg 3APS, 10 animals): 100%
% Death rate ([1]; Cardiazol, ST 549 i.p., equimolar to 200 mg/kg 3APS): 50%
% Conv. [1, 15]: 90%
% Death rate [1, 15]: 0%
animals preserved from cardiazol-induced death ([1]; dose equimolar to 400 mg/10 ml/kg i.p. of 3-APS): 100%
effect on the relevant parameters (cardiazol) [1, 16]: did not affect the relevant parameters
% Death rate ([2]; Strychnine, ST 549 i.p., equimolar to 200 mg/kg 3APS): 90%
% Conv. ([2]; Strychnine, ST 549 i.p., equimolar to 200 mg/kg 3APS, 10 animals): 100%
% Conv. [2, 17]: 100%
% Death rate [2, 17]: 90%
latency time of strychnine-induced death [2, 16]: significantly increased
latency time of strychnine-induced first convulsion [2, 16]: significantly increased
% Death rate ([3]; Bicuculline, ST 549 i.p., equimolar to 200 mg/kg 3APS): 60%
% Conv. ([3]; Bicuculline, ST 549 i.p., equimolar to 200 mg/kg 3APS, 10 animals): 70%
% Conv. [3, 18]: 60%
% Death rate [3, 18]: 60%
decrease of bicuculline-induced death rate ([3]; doses equimolar to 400 and 200 mg/10 ml/kg i.p. of 3-APS): 30%
animals preserved from convulsions (bicuculline) ([3]; doses equimolar to 400 and 200 mg/10 ml/kg i.p. of 3-APS, printed as "the same percentage"): 30%
general health or behaviour of the animals [5]: did not affect
Autopsy, main organs ([5]; at the end of the test): did not reveal either alterations or lesions to the main organs
blood and urine parameters ([5]; with respect to the controls): unchanged
tolerability [6]: well tolerated
area under the curve of average number of seizures and their duration versus time, compared with controls [7]: statistically significant difference
death rate ([8]; 400 mg/kg i.p. 30 minutes before the electroshock): 3/14
death rate ([8]; 800 mg/kg i.p. 30 minutes before the electroshock): 3/14
